From ChEMBL document CHEMBL1201862, “PubChem BioAssay data set” (2004)
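1) Cells in 96-well plates. 2) Compound, 48 h, 5 concentrations. 3) Linear interpolation between surrounding doses. 4) Unreached endpoint = highest concentration. GI50 marks 50% less growth.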 Activity calls are given as the source filed them. Rule as the data show it: active = GI50 up to about 1.1 µM and inactive = higher.

Columns and labels:
Test in all cases: DTP human tumour cell line panel, 48 h
TK-10 = test system: TK-10
HOP-92 = test system: HOP-92
RPMI-8226 = test system: RPMI-8226
SNB-19 = test system: SNB-19
IGROV-1 = test system: IGROV-1
ACHN = test system: ACHN
HCT-15 = test system: HCT-15
Malme-3M = test system: Malme-3M
A549 = test system: A549
OVCAR-4 = test system: OVCAR-4
HOP-62 = test system: HOP-62
OVCAR-3 = test system: OVCAR-3
NCI-H460 = test system: NCI-H460
SF-295 = test system: SF-295
M14 = test system: M14
COLO 205 = test system: COLO 205
SR = test system: SR
HCC 2998 = test system: HCC 2998
T47D = test system: T47D
NCI/ADR-RES = test system: NCI/ADR-RES

Structure (SMILES)	GI50 (TK-10)	GI50 (HOP-92)	GI50 (RPMI-8226)	GI50 (SNB-19)	GI50 (IGROV-1)	GI50 (ACHN)	GI50 (HCT-15) [µM]	GI50 (Malme-3M)	GI50 (A549)	GI50 (OVCAR-4)	GI50 (HOP-62)	GI50 (OVCAR-3)	GI50 (NCI-H460)	GI50 (SF-295)	GI50 (M14)	GI50 (COLO 205)	GI50 (SR)	GI50 (HCC 2998)	GI50 (T47D)	GI50 (NCI/ADR-RES)
N#Cc1ccccc1/C=N/O	> 100 µM (inactive)	> 100 µM (inactive)	> 42.2 µM (inactive)	> 100 µM (inactive)	> 100 µM (inactive)	> 60.3 µM (inactive)	> 41	> 100 µM (inactive)	> 100 µM (inactive)	> 100 µM (inactive)	> 100 µM (inactive)	> 100 µM (inactive)	> 59.2 µM (inactive)	> 100 µM (inactive)	> 100 µM (inactive)	> 49.7 µM (inactive)	> 100 µM (inactive)	> 100 µM (inactive)		
O=c1c(NCc2ccccc2)c(C2(c3ccccc3F)SCCCS2)c1=O	> 100 µM (inactive)	> 100 µM (inactive)		> 100 µM (inactive)	> 100 µM (inactive)	> 100 µM (inactive)	> 100		> 100 µM (inactive)	> 100 µM (inactive)	> 100 µM (inactive)	> 100 µM (inactive)	> 100 µM (inactive)	> 100 µM (inactive)	> 100 µM (inactive)	> 100 µM (inactive)			> 100 µM (inactive)	> 100 µM (inactive)
CC(=O)Nc1ccc2nc(-c3cccc(Cl)c3)cc(O)c2c1	> 100 µM (inactive)	4.85 µM (inactive)	66.1 µM (inactive)	7.62 µM (inactive)	13.4 µM (inactive)	64.6 µM (inactive)		3.18 µM (inactive)	54.7 µM (inactive)		65 µM (inactive)		> 10 µM (inactive)		11.1 µM (inactive)	2.99 µM (inactive)	5.37 µM (inactive)	8.38 µM (inactive)		> 100 µM (inactive)
CC(NC(=O)C(N)CC(=O)O)C(=O)OC12CC3CC(CC(C3)C1)C2 (stereo not drawn)	> 100 µM (inactive)	> 100 µM (inactive)	> 100 µM (inactive)	> 100 µM (inactive)	> 100 µM (inactive)	> 100 µM (inactive)	> 100		> 100 µM (inactive)	> 100 µM (inactive)			> 100 µM (inactive)		> 100 µM (inactive)	> 100 µM (inactive)	> 100 µM (inactive)	> 100 µM (inactive)		> 100 µM (inactive)
CS(=O)(=O)N1CC(CI)c2ccc(O)cc21 (stereo not drawn)	2.28 µM (inactive)	2.18 µM (inactive)	1.61 µM (inactive)		3.98 µM (inactive)	2.67 µM (inactive)	3.13	1.93 µM (inactive)	3.56 µM (inactive)	1.96 µM (inactive)	3.02 µM (inactive)	2.89 µM (inactive)	2.35 µM (inactive)	3.51 µM (inactive)		2.88 µM (inactive)	1.4 µM (inactive)	2.08 µM (inactive)		2.75 µM (inactive)
C/C(=N\Nc1ccccc1)c1sc(-c2nc(C)c(/C(C)=N/Nc3ccccc3)s2)nc1C	80.9 µM (inactive)	10.4 µM (inactive)	12.6 µM (inactive)	> 63.1 µM (inactive)	14.1 µM (inactive)	10.4 µM (inactive)	11.4	16.1 µM (inactive)	13.5 µM (inactive)	21.2 µM (inactive)		23.6 µM (inactive)	42.2 µM (inactive)	9.98 µM (inactive)	7.71 µM (inactive)	8.24 µM (inactive)	25.6 µM (inactive)	7.93 µM (inactive)		
